Assay results reported in patent publication US5441983A, “Treatment of infection by enveloped virus with calix(N)arene compounds” (Genelabs Incorporated, priority 1992, dated 1995).

What was measured:
HIV-HXB = experiment: Inhibition of syncytia formation, HIV-HXB (HTLV-IIIB); settings: for HIV-HXB ED100: complete inhibition of syncytia formation; for EC100: Human immunodeficiency virus 1, 18 h, read-out: HIV-HXB ED100, complete inhibition of syncytia formation
HIV-RF-II = experiment: Inhibition of syncytia formation, HIV-RF-II; settings: for HIV-RF-II ED100: complete inhibition of syncytia formation; for EC100: Human immunodeficiency virus 1, 18 h, read-out: HIV-RF-II ED100, complete inhibition of syncytia formation
Method: Briefly, cells chronically infected with HTLV-IIIB or RF-II HIV strains were incubated in the presence of serial dilutions of the selected KY compound, then further cocultured with indicator cells. The extent of syncytia formation was scored under phase microscopy.
Representative calix(n)arene compounds from Table 2 were tested for inhibition of cytopathic effects in cells infected with one of two HTLV-III strains, HTLV-IIIB and RF-II strains, as described in Example 12, and in the subsection above.
Human CD4^+ indicator cells (VB) and chronically infected H9 cells were maintained in RPMI-1640 medium supplemented with 5% fetal calf serum, 100 Units of penicillin per ml and 100 μg of streptomycin per ml at 37° C. in a humidified incubator containing 7% CO2.
For the fusion assay, serial dilutions between 1:2 and 1:2^8 of a selected KY compound, 1 mg/ml in PBS were made in a 96 well round bottom plate. The diluted KY compound was transferred to a 96 well flat-bottom plate. To each well was added 25 μg chronically infected H9 cells (at 2×10^6, cells/ml), or cells chronically infected with RF-II strain HIV, followed by incubation at 37° C. for 45 minutes. To each well was then added 25 μl VB cells (about 5×10^4 cells), and the cells and virus isolates were cocultured for 18 hours in a humid 5% CO2 atmosphere.

HSV-1 = experiment: Plaque reduction assay, HSV-1, Vero cells; type: cell-based, HSV-1 (Kos-1); settings: plaque reduction, Vero cells
Method: (§1) used in Table 3 were further tested for activity against HSV infection in
(§2) a plaque reduction assay, as detailed in Example 6. Here Vero cells, after
(§3) overnight incubation, were exposed to serial dilutions of KY compound,
(§4) from 0.625-10 μg/ml, and HSV-1 or HSV-2 virus for two hours. After
(§5) washing to remove drug and extracellular virus, the cells were further
(§6) incubated for 2 days, then stained and counted for plaque formation.
(§7) Percent inhibition was determined by dividing plaques produced by total
(§8) number of plaques in infected, untreated controls. From the concentration
(§9) effect curve of plaque inhibition (expressed as percent of control), the
(§10) concentration of compound required to produce 50% plaque reduction,
(§11) IC50, was determined. The IC50 values for infection by HSV-1 and
(§12) HSV-2 infection is given in the right-hand columns in Table 3. With

HSV-2 = experiment: Plaque reduction assay, HSV-2, Vero cells; type: cell-based, HSV-2 (333)
Method: as §1, §2, §3, §4, §5, §6, §7, §8, §9, §10, §11, §12

**Q.** How did the “HIV-HXB ED100” value (HIV-HXB) turn out when CCCC(=O)Oc1c2c(S(=O)(=O)O)cc3cc(S(=O)(=O)O)c(c(OC(=O)CCC)c13)Cc1c(S(=O)(=O)O)cc3cc(S(=O)(=O)O)c(c(OC(=O)CCC)c3c1OC(=O)CCC)Cc1c(S(=O)(=O)O)cc3cc(S(=O)(=O)O)c(c(OC(=O)CCC)c3c1OC(=O)CCC)Cc1c(S(=O)(=O)O)cc3cc(S(=O)(=O)O)c(c(OC(=O)CCC)c3c1OC(=O)CCC)C2 [KY-288] was run?
**A.** 8

**Q.** What about the “HIV-RF-II ED100” value (HIV-RF-II) of the same compound?
**A.** 16

**Q.** With O=C(O)CCCCCOc1c2c(S(=O)(=O)O)cc3cc(S(=O)(=O)O)c(c(OCCCCCC(=O)O)c13)Cc1c(S(=O)(=O)O)cc3cc(S(=O)(=O)O)c(c(OCCCCCC(=O)O)c3c1OCCCCCC(=O)O)Cc1c(S(=O)(=O)O)cc3cc(S(=O)(=O)O)c(c(OCCCCCC(=O)O)c3c1OCCCCCC(=O)O)Cc1c(S(=O)(=O)O)cc3cc(S(=O)(=O)O)c(c(OCCCCCC(=O)O)c3c1OCCCCCC(=O)O)C2 [KY-307] as the compound, how does the EC100 (HIV-HXB) read?
**A.** 8 µg/mL

**Q.** What about the EC100 (HIV-RF-II) of the same compound?
**A.** 32 µg/mL

**Q.** With COc1c2c(S(=O)(=O)O)cc3cc(S(=O)(=O)O)c(c(OC)c13)Cc1c(S(=O)(=O)O)cc3cc(S(=O)(=O)O)c(c(OC)c3c1OC)Cc1c(S(=O)(=O)O)cc3cc(S(=O)(=O)O)c(c(OC)c3c1OC)Cc1c(S(=O)(=O)O)cc3cc(S(=O)(=O)O)c(c(OC)c3c1OC)C2 [KY-280] as the compound, how does the “HIV-HXB ED100” value (HIV-HXB) read?
**A.** 16

**Q.** And the “HIV-RF-II ED100” value (HIV-RF-II)?
**A.** 32

**Q.** What about the “HSV-1 IC50” value (HSV-1) of the same compound?
**A.** 1.1 µg/mL

**Q.** What about the “HSV-2 IC50” value (HSV-2) of the same compound?
**A.** 1 µg/mL

**Q.** Which results are given for O=C(O)C1c2c(S(=O)(=O)O)cc3cc(S(=O)(=O)O)c(c(O)c3c2O)C(C(=O)O)c2c(S(=O)(=O)O)cc3cc(S(=O)(=O)O)c(c(O)c3c2O)C(C(=O)O)c2c(S(=O)(=O)O)cc3cc(S(=O)(=O)O)c(c(O)c3c2O)C(C(=O)O)c2c(S(=O)(=O)O)cc3cc(S(=O)(=O)O)c1c(O)c3c2O (centres unmarked) [Y-66]?
**A.** IC50 (HSV-1; Human alphaherpesvirus 1, Vero): > 10 µg/mL; IC50 (HSV-2; Human alphaherpesvirus 2, Vero): > 10 µg/mL

**Q.** Which EC100 (HIV-HXB) does the source give for O=C(O)CCCCCCC(=O)Oc1c2c(S(=O)(=O)O)cc3cc(S(=O)(=O)O)c(c(OC(=O)CCCCCCC(=O)O)c13)Cc1c(S(=O)(=O)O)cc3cc(S(=O)(=O)O)c(c(OC(=O)CCCCCCC(=O)O)c3c1OC(=O)CCCCCCC(=O)O)Cc1c(S(=O)(=O)O)cc3cc(S(=O)(=O)O)c(c(OC(=O)CCCCCCC(=O)O)c3c1OC(=O)CCCCCCC(=O)O)Cc1c(S(=O)(=O)O)cc3cc(S(=O)(=O)O)c(c(OC(=O)CCCCCCC(=O)O)c3c1OC(=O)CCCCCCC(=O)O)C2 [KY-294] here?
**A.** 16 µg/mL

**Q.** And the EC100 (HIV-RF-II)?
**A.** 16 µg/mL

**Q.** CC=CC(=O)Oc1c2c(S(=O)(=O)O)cc3cc(S(=O)(=O)O)c(c(OC(=O)C=CC)c13)Cc1c(S(=O)(=O)O)cc3cc(S(=O)(=O)O)c(c(OC(=O)C=CC)c3c1OC(=O)C=CC)Cc1c(S(=O)(=O)O)cc3cc(S(=O)(=O)O)c(c(OC(=O)C=CC)c3c1OC(=O)C=CC)Cc1c(S(=O)(=O)O)cc3cc(S(=O)(=O)O)c(c(OC(=O)C=CC)c3c1OC(=O)C=CC)C2 [KY-293] was tested. Which EC100 (HIV-HXB) did it give?
**A.** 16 µg/mL

**Q.** And the EC100 (HIV-RF-II)?
**A.** 63 µg/mL

**Q.** How did the EC100 (HIV-HXB) turn out when O=S(=O)(O)c1c2c(O)c3c(O)c(c(S(=O)(=O)O)c(Br)c3c1Br)C(C(Br)CBr)c1c(S(=O)(=O)O)c(Br)c3c(Br)c(S(=O)(=O)O)c(c(O)c3c1O)C(C(Br)CBr)c1c(S(=O)(=O)O)c(Br)c3c(Br)c(S(=O)(=O)O)c(c(O)c3c1O)C(C(Br)CBr)c1c(S(=O)(=O)O)c(Br)c3c(Br)c(S(=O)(=O)O)c(c(O)c3c1O)C2C(Br)CBr (centres unmarked) [KY-193] was run?
**A.** 63 µg/mL

**Q.** And the EC100 (HIV-RF-II)?
**A.** 500 µg/mL

**Q.** Which results are given for CC(=O)Oc1c2c(S(=O)(=O)O)cc3cc(S(=O)(=O)O)c(c(OC(C)=O)c13)Cc1c(S(=O)(=O)O)cc3cc(S(=O)(=O)O)c(c(OC(C)=O)c3c1OC(C)=O)Cc1c(S(=O)(=O)O)cc3cc(S(=O)(=O)O)c(c(OC(C)=O)c3c1OC(C)=O)Cc1c(S(=O)(=O)O)cc3cc(S(=O)(=O)O)c(c(OC(C)=O)c3c1OC(C)=O)C2 [KY-270]?
**A.** EC100 (HIV-HXB): 16 µg/mL; EC100 (HIV-RF-II): 32 µg/mL

**Q.** Which EC100 (HIV-HXB) does the source give for CC(=O)Oc1c2c(S(=O)(=O)O)cc3cc(S(=O)(=O)O)c(c(OC(C)=O)c13)C(C(=O)O)c1c(S(=O)(=O)O)cc3cc(S(=O)(=O)O)c(c(OC(C)=O)c3c1OC(C)=O)C(C(=O)O)c1c(S(=O)(=O)O)cc3cc(S(=O)(=O)O)c(c(OC(C)=O)c3c1OC(C)=O)C(C(=O)O)c1c(S(=O)(=O)O)cc3cc(S(=O)(=O)O)c(c(OC(C)=O)c3c1OC(C)=O)C2C(=O)O (centres unmarked) [KY-272] here?
**A.** 63 µg/mL

**Q.** And the EC100 (HIV-RF-II)?
**A.** 250 µg/mL

**Q.** With O=S(=O)(O)c1c2c(O)c3c(O)c(c(S(=O)(=O)O)c(O)c3c1O)C(c1ccccc1)c1c(S(=O)(=O)O)c(O)c3c(O)c(S(=O)(=O)O)c(c(O)c3c1O)C(c1ccccc1)c1c(S(=O)(=O)O)c(O)c3c(O)c(S(=O)(=O)O)c(c(O)c3c1O)C(c1ccccc1)c1c(S(=O)(=O)O)c(O)c3c(O)c(S(=O)(=O)O)c(c(O)c3c1O)C2c1ccccc1 (centres unmarked) [KY-85] as the compound, how does the EC100 (HIV-HXB) read?
**A.** 32 µg/mL

**Q.** With CCCCC(=O)Oc1c2c(S(=O)(=O)O)cc3cc(S(=O)(=O)O)c(c(OC(=O)CCCC)c13)Cc1c(S(=O)(=O)O)cc3cc(S(=O)(=O)O)c(c(OC(=O)CCCC)c3c1OC(=O)CCCC)Cc1c(S(=O)(=O)O)cc3cc(S(=O)(=O)O)c(c(OC(=O)CCCC)c3c1OC(=O)CCCC)Cc1c(S(=O)(=O)O)cc3cc(S(=O)(=O)O)c(c(OC(=O)CCCC)c3c1OC(=O)CCCC)C2 [KY-289] as the compound, how does the EC100 (HIV-HXB) read?
**A.** 16 µg/mL

**Q.** And the EC100 (HIV-RF-II)?
**A.** 32 µg/mL
